These results are taken from ChEMBL document CHEMBL1649335, “Discovery of {1-[4-(2-{hexahydropyrrolo[3,4-c]pyrrol-2(1H)-yl}-1H-benzimidazol-1-yl)piperidin-1-yl]cyclooctyl}methanol, systemically potent novel non-peptide agonist of nociceptin/orphanin FQ receptor as analgesic for the treatment of neuropathic pain: design, synthesis, and structure-activity …” (Bioorg Med Chem, 2010).

Data set [1] has as its system Rattus norvegicus. In words: Antiallodynic activity against von Frey hair mechanically stimulated neuropathic pain in Sprague-Dawley rat assessed as assessed as minimum effective dose to increase of response threshold per site at 0.55 to 170 nmol/site, icv after 20 mins. The format is functional, organism-based.
Data set [2] relates to Rattus norvegicus. The experiment in a line: Antiallodynic activity against von Frey hair mechanically stimulated neuropathic pain in intrathecally dosed Sprague-Dawley rat assessed as assessed as minimum effective dose to increase of response threshold per site after 20 mins. It is filed as functional.
In data set [3] the test system is Rattus norvegicus. In words: Antiallodynic activity against von Frey hair mechanically stimulated neuropathic pain in Sprague-Dawley rat assessed as effect on allodynia in contralateral paw at 0.55 to 170 nmol/site administered intrathecally after 1 hr. It is filed as functional, organism-based.
Data set [4] has as its system Rattus norvegicus. The experiment in a line: Antiallodynic activity against von Frey hair mechanically stimulated neuropathic pain in Sprague-Dawley rat assessed as increase of response threshold per site at 0.55 to 55 nmol/site administered intrathecally after 1 hr. It is filed as functional, organism-based.
For data set [5], the system named is Rattus norvegicus. In words: Antiallodynic activity against von Frey hair mechanically stimulated neuropathic pain in intrathecally dosed Sprague-Dawley rat assessed as increase of response threshold per site after 20 mins. The format is functional.
Data set [6] has as its system Rattus norvegicus. In words: Antiallodynic activity against von Frey hair mechanically stimulated neuropathic pain in Sprague-Dawley rat assessed as increase of response threshold per site at 0.55 to 170 nmol/site, icv after 20 mins. The format is functional, organism-based.
The test system of data set [7] is Rattus norvegicus. The experiment in a line: Antiallodynic activity against von Frey hair mechanically stimulated neuropathic pain in Sprague-Dawley rat assessed as effect on allodynia in contralateral paw at 0.55 to 170 nmol/site administered intrathecally after 20 mins. The format is functional, organism-based.
Data set [8] concerns Rattus norvegicus. In words: Antiallodynic activity against von Frey hair mechanically stimulated neuropathic pain in icv dosed Sprague-Dawley rat assessed as decrease of response threshold in contralateral paw after 1 hr. The format is functional, organism-based.
The subject of data set [9] is Rattus norvegicus. In words: Antiallodynic activity against von Frey hair mechanically stimulated neuropathic pain in Sprague-Dawley rat assessed as increase of response threshold per site at 0.55 to 170 nmol/site, icv after 1 hr. The format is functional, organism-based.
The test system of data set [10] is Rattus norvegicus. In words: Antiallodynic activity against von Frey hair mechanically stimulated neuropathic pain in Sprague-Dawley rat assessed as assessed as minimum effective dose to increase of response threshold per site at 0.55 to 55 nmol/site administered intrathecally after 1 hr. The format is functional, organism-based.
The test system of data set [11] is Rattus norvegicus. The experiment in a line: Antiallodynic activity against von Frey hair mechanically stimulated neuropathic pain in Sprague-Dawley rat assessed as assessed as minimum effective dose to increase of response threshold per site at 0.55 to 170 nmol/site, icv after 1 hr. The format is functional, organism-based.
In data set [12] the test system is Rattus norvegicus. In words: Antiallodynic activity against von Frey hair mechanically stimulated neuropathic pain in icv dosed Sprague-Dawley rat assessed as decrease of response threshold in contralateral paw after 20 mins. It is filed as functional, organism-based.
A further data set concerns the target Glutamate NMDA receptor. In words: Inhibition of rat NMDA receptor. The format is protein-complex assay.
In data set [13] the target is T1, Nociceptin receptor (Homo sapiens, UniProt P41146). The experiment in a line: biochemical.
T1 sequence (P41146 whole entry): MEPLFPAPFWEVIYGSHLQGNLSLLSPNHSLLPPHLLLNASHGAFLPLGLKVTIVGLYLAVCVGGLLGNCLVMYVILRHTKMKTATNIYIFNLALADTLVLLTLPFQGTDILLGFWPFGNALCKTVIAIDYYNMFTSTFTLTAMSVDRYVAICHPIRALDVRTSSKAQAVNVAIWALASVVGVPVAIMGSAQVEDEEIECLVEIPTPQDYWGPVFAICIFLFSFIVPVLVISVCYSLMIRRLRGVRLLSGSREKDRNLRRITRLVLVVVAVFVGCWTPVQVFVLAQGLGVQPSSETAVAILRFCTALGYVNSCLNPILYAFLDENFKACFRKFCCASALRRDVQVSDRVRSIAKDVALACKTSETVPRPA
Data set [14] deals with Kappa-type opioid receptor (Homo sapiens, UniProt P41145).
Chain of Kappa-type opioid receptor (P41145 whole entry): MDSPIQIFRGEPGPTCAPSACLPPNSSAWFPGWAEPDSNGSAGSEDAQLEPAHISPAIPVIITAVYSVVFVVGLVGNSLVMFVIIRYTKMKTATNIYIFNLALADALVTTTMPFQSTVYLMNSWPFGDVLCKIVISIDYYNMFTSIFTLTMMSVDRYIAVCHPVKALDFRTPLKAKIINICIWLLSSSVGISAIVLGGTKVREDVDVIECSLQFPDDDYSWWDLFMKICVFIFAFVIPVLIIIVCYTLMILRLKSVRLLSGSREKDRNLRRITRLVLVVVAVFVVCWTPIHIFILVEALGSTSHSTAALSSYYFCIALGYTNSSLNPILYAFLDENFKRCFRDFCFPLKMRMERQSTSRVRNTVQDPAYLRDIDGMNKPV
The target of data set [15] is T1, Nociceptin receptor.
A further data set is described as follows: in vitro. As to conditions: human, liver microsomes.
A further data set addresses Mu-type opioid receptor (Homo sapiens, UniProt P35372).
The target in the next data set is Tyrosine 3-monooxygenase (Rattus norvegicus, UniProt P04177). In words: Inhibition of rat tyrosine hydroxylase.
Chain of Tyrosine 3-monooxygenase (P04177 whole entry): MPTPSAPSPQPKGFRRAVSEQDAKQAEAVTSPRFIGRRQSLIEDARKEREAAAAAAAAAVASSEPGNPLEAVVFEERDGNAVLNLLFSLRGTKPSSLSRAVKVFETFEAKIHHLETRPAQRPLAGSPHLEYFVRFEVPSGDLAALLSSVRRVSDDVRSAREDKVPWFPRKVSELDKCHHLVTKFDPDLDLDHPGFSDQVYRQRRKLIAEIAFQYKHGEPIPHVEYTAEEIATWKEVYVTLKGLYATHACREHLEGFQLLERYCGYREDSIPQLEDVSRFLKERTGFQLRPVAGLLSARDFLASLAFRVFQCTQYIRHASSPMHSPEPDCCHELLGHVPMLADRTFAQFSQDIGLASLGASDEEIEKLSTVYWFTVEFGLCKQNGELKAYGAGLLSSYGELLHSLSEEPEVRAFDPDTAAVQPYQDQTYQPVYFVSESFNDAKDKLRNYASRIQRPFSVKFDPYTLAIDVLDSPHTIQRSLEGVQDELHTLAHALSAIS
The nature of data set [16]: Inhibition of rat phospholipase C.
Data set [17] in a line: Inhibition of rat GABA transporter.
Data set [18] in a line: Inhibition of rat K+ATP channel.
In data set [19] the test system is Rattus norvegicus. In words: Antiallodynic activity against von Frey hair mechanically stimulated neuropathic pain in Sprague-Dawley rat assessed as increase of response threshold at 1 to 30 mg/kg, sc after 30 mins to 4 hrs. The format is functional, organism-based.
Data set [20] deals with Rattus norvegicus. In words: Antiallodynic activity against von Frey hair mechanically stimulated neuropathic pain in Sprague-Dawley rat assessed as effect on allodynia in contralateral paw at 1 to 30 mg/kg, sc after 30 mins to 4 hrs. The format is functional, organism-based.
Data set [21] has as its system Rattus norvegicus. In words: Antiallodynic activity against von Frey hair mechanically stimulated neuropathic pain in Sprague-Dawley rat assessed as assessed as minimum effective dose to increase of response threshold at 1 to 30 mg/kg, sc after 30 mins to 4 hrs. It is filed as functional, organism-based.
The nature of data set [22]: Inhibition of rat N-type Ca2+ channel.
Data set [23] in a line: Inhibition of rat choline transporter.
The nature of data set [24]: Inhibition of rat chloride channel.
Data set [25] has as its target T2, Voltage-gated L-type calcium channel (Rattus norvegicus, UniProt P22002+Q02485+P27732). In words: Inhibition of rat L-type Ca2+ channel verapamil site.
Data set [26] deals with T2, Voltage-gated L-type calcium channel. In words: Inhibition of rat L-type Ca2+ channel dihydropyridine site.
Data set [27] in a line: Stimulation of rat adenylate cyclase.
Data set [28] can be described thus: Inhibition of rat Na+ channel site 2.
Data set [29] is described as follows: Inhibition of rat 5-HT receptor.

Calls of active or inactive are those of the source.

Chain of Mu-type opioid receptor (P35372 whole entry): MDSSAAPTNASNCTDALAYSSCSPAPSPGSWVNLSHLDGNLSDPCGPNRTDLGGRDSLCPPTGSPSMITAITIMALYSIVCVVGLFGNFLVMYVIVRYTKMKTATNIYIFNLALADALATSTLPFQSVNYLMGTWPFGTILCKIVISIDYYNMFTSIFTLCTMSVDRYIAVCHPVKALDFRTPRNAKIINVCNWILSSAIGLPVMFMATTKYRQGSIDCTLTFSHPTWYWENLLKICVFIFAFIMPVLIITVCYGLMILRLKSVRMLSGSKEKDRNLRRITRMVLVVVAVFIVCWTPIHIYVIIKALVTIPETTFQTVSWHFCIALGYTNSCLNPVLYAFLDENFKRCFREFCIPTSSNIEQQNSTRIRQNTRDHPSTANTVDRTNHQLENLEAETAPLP

Consider `CC(C)C[C@H](NC(=O)[C@H](CCCCN)NC(=O)[C@H](CCCNC(=N)N)NC(=O)[C@H](C)NC(=O)[C@H](CO)NC(=O)[C@H](CCCCN)NC(=O)[C@H](CCCNC(=N)N)NC(=O)[C@H](C)NC(=O)CNC(=O)[C@@H](NC(=O)[C@H](Cc1ccccc1)NC(=O)CNC(=O)CNC(=O)[C@@H](N)Cc1ccccc1)[C@@H](C)O)C(=O)N[C@@H](C)C(=O)N[C@@H](CC(N)=O)C(=O)N[C@@H](CCC(N)=O)C(=O)O` [NOCICEPTIN], for which the MED entry in the data set with Rattus norvegicus [1], in the data set on Rattus norvegicus [10] and with Rattus norvegicus [11] was “inactive” each time. In addition, the MED in the data set with Rattus norvegicus [2] was 55 nmol. Also, the result with Rattus norvegicus [3] and in the data set on Rattus norvegicus [7] was inactive. For the same compound, the ED50 result in the data set with Rattus norvegicus [4], with Rattus norvegicus [6] and in the data set on Rattus norvegicus [9] was “inactive” throughout. Moreover, the ED50 in the data set on Rattus norvegicus [5] is recorded as 10.3 nmol. Also, the Activity entry in the data set on Rattus norvegicus [8] and with Rattus norvegicus [12] was “Dose-dependent effect” in each case.

`O=C(O)[C@@H]1C[C@H](CP(=O)(O)O)CCN1` [SELFOTEL]: on Glutamate NMDA receptor, 1620 nM corresponded to half-maximal inhibition (IC50).

Turning to `CN1CCN(c2nc3ccccc3n2C2CCN(C3(CO)CCCCCCC3)CC2)CC1`, the Ki (in general, the dissociation constant of the complex between target and ligand, obtained from inhibition or displacement) on Nociceptin receptor [13] was 4.29 nM. Besides, the 50% effective concentration (EC50) (as a rule, the concentration that produces a half-maximal response) came out at 18 nM in [14] and 17 nM at Nociceptin receptor [15]. For the same compound, the half-life – broadly, the time needed for the level to fall by half in the phase considered – at 1 µM in the data set “in vitro” was 9.5 min.

At Nociceptin receptor [13], `CC1CN(c2nc3ccccc3n2C2CCN(C3(CO)CCCCCCC3)CC2)CCN1` (stereo not drawn) showed an inhibition constant (Ki) of 0.96 nM. The EC50 in [14] amounted to 366 nM; at Nociceptin receptor [15], 38 nM; on Mu-type opioid receptor it was 1770 nM. The compound also returned a half-life at 1 µM in the data set “in vitro” of 19.7 min.

Consider `N[C@@H](Cc1ccc(O)c(I)c1)C(=O)O` [IOTYROSINE], for which the IC50 – broadly, the midpoint of a concentration-inhibition curve – on Tyrosine 3-monooxygenase is 1.4 nM.

The compound `OCC1(N2CCC(n3c(-c4ccc(F)c(Cl)c4)nc4ccccc43)CC2)CCCCC1` returned a Ki at Nociceptin receptor [13] of 4.29 nM. The EC50 at Nociceptin receptor [15] stood at 53 nM.

As for `CN1CCN(c2nc3ccccc3n2C2CCN(C3(C(=O)O)CCCCCCC3)CC2)CC1`, the Ki at Nociceptin receptor [13] was greater than 250 nM.

The compound `NC[C@@H]1O[C@H](O[C@H]2[C@@H](O)[C@H](O[C@@H]3[C@@H](O)[C@H](N)C[C@H](N)[C@H]3O[C@H]3O[C@H](CN)[C@@H](O)[C@H](O)[C@H]3N)O[C@@H]2CO)[C@H](N)[C@@H](O)[C@@H]1O` [FRAMYCETIN] registered a half-inhibitory concentration (IC50) in [16] of 7.9 nM.

Compound `O=C(O)C1CCCNC1` (stereo not drawn) [NIPECOTIC ACID] registered an IC50 in data set [17] of 7170 nM.

`COc1ccc(Cl)cc1C(=O)NCCc1ccc(S(=O)(=O)NC(=O)NC2CCCCC2)cc1` [GLYBURIDE] gave a half-maximal inhibitory concentration (IC50) in [18] of 1.1 nM.

On to `OCC1(N2CCC(n3c(-c4ccc(Cl)cc4)nc4ccccc43)CC2)CCCCCCC1`, for which the affinity at Nociceptin receptor [13], expressed as Ki, was 0.15 nM. Moreover, the EC50 on Nociceptin receptor [15] was 9.1 nM; at Mu-type opioid receptor, greater than 10000 nM.

`CC1(C)CN(c2nc3ccccc3n2C2CCN(C3(CO)CCCCCCC3)CC2)CCN1`: the affinity on Nociceptin receptor [13], expressed as Ki, was 4.54 nM. The compound further came in with a concentration for a half-maximal effect (EC50) on Nociceptin receptor [15] of 23 nM. For the same compound, in the data set with Rattus norvegicus [19], the ED50 entry is “inactive”. In the data set on Rattus norvegicus [20], the outcome was inactive. Besides, the MED entry with Rattus norvegicus [21] was “inactive”.

`C[C@@H](O)[C@@H]1NC(=O)[C@H](Cc2ccc(O)cc2)NC(=O)[C@@H]2C[C@@H](O)CN2C(=O)[C@H](CC(N)=O)NC(=O)[C@@H]2CSSC[C@@H]3NC(=O)[C@H](CO)NC(=O)[C@H](CO)NC(=O)CNC(=O)[C@@H]4C[C@@H](O)CN4C(=O)[C@H](CO)NC(=O)[C@H](CCCCN)NC(=O)[C@@H](N)CSSC[C@H](NC(=O)[C@H](CSSC[C@@H](C(=O)N[C@@H](Cc4ccc(O)cc4)C(N)=O)NC(=O)[C@H](CCCNC(=N)N)NC(=O)[C@H](CCCCN)NC1=O)NC(=O)[C@H](CC(N)=O)NC(=O)[C@H](Cc1ccc(O)cc1)NC(=O)[C@H](CO)NC(=O)[C@H]([C@@H](C)O)NC(=O)[C@@H]1C[C@@H](O)CN1C(=O)[C@H](CO)NC3=O)C(=O)N[C@@H](CCCNC(=N)N)C(=O)N[C@@H](CO)C(=O)N2` returned a half-maximal inhibitory concentration (IC50) in [22] of 0.045 nM.

On to `OCC1(N2CCC(n3c(-c4ccc(F)c(Cl)c4)nc4ccccc43)CC2)CCCCCCC1`, for which the affinity on Nociceptin receptor [13] corresponds to a Ki of 0.73 nM. In addition, the EC50 at Nociceptin receptor [15] was 8.9 nM; on Mu-type opioid receptor it was 1220 nM.

The compound `C[N+]1(C)CCO[C@@](O)(c2ccc(-c3ccc([C@@]4(O)C[N+](C)(C)CCO4)cc3)cc2)C1` [HEMICHOLINIUM DIBROMIDE] returned an IC50 in data set [23] of 7.7 nM.

For the compound `C=C(C)[C@@H]1[C@H]2OC(=O)[C@@H]1[C@]1(O)C[C@H]3O[C@]34C(=O)O[C@H]2[C@]14C` [PICROTOXININ], in [24], the IC50 came to 385 nM.

On to `COc1ccc(CCN(C)CCCC(C#N)(c2cc(OC)c(OC)c(OC)c2)C(C)C)cc1OC` (stereo not drawn) [GALLOPAMIL], for which the half-maximal inhibitory concentration (IC50) in [25] stood at 23 nM.

For the compound `CCOC(=O)C1=C(C)NC(C)=C(C(=O)OC)C1c1cccc([N+](=O)[O-])c1` (stereo not drawn) [NITRENDIPINE], the concentration for half-maximal inhibition (IC50) in [26] was determined as 1.3 nM.

Consider `C=C[C@@]1(C)CC(=O)[C@]2(O)[C@@]3(C)[C@@H](O)CCC(C)(C)[C@@H]3[C@H](O)[C@H](OC(C)=O)[C@@]2(C)O1` [COLFORSIN], for which it took 4300 nM to reach a half-maximal effect in data set [27] (EC50).

For the compound `COc1ccc(C(=O)O[C@H]2CC[C@@]3(C)[C@@H]4CC[C@H]5[C@]6(O)C[C@H](O)[C@@]7(O)[C@@H](CN8C[C@@H](C)CC[C@H]8[C@@]7(C)O)[C@]6(O)C[C@@]53O[C@]24O)cc1OC` [VERATRIDINE], the IC50 in data set [28] worked out at 10700 nM.

Compound `NCCc1c[nH]c2ccc(O)cc12` [SEROTONIN] returned a half-maximal inhibitory concentration (IC50) in data set [29] of 2.7 nM.
